ALG = not defined here; PHG = not defined here
Legend:
HLA-A0201 = HLA-A0201 (Homo sapiens, UniProt P04439, D140Y/D185E/D98H/E176V/E277Q/G131W/G231S/I119V/I121R/I166T/I218V/L300P/L318F/N151K/N90K/P208A/P217A/Q86G/Q94H/R138H/R169H/T345S); format: binding
[1] = tested on: SVYDFFVWL (TRP-2 180-188) reactive T cells; assay: T cell activation time course assay, IFNγ production (FACS), TRP-2 epitope; settings: for % CD8+ T cells producing IFN-γ peptide concentrations in picomolar 24H 0.5 / Geometric mean IFN-γ in arbitrary fluorescence units peptide concentrations in picomolar 24H 0.5 / % CD8+ T cells producing IFN-γ peptide concentrations in picomolar 48H 0.5 / Geometric mean IFN-γ in arbitrary fluorescence units peptide concentrations in picomolar 48H 0.5: peptide 0.5 pM; for % CD8+ T cells producing IFN-γ peptide concentrations in picomolar 24H 5·10^3 / Geometric mean IFN-γ in arbitrary fluorescence units peptide concentrations in picomolar 24H 5·10^3 / % CD8+ T cells producing IFN-γ peptide concentrations in picomolar 48H 5·10^3 / Geometric mean IFN-γ in arbitrary fluorescence units peptide concentrations in picomolar 48H 5·10^3: peptide 5·10^3 pM
[2] = tested on: HLA-A2::Mart-1(26-35) reactive T cells stimulated by T2 cells; assay: T cell activation time course assay, IFNγ production (FACS), Mart-1 epitope; format: cell-based; settings: for % CD8+ T cells producing IFN-γ 0H / Geometric mean IFN-γ in arbitrary fluorescence units 0H: time point 0H (basal); for % CD8+ T cells producing IFN-γ 2H / Geometric mean IFN-γ in arbitrary fluorescence units 2H: time point 2H; for % CD8+ T cells producing IFN-γ 4H / Geometric mean IFN-γ in arbitrary fluorescence units 4H: time point 4H; for % CD8+ T cells producing IFN-γ 24H / Geometric mean IFN-γ in arbitrary fluorescence units 24H: time point 24H; for % CD8+ T cells producing IFN-γ 24H / Geometric mean IFN-γ in arbitrary fluorescence units 24H / % CD8+ T cells producing IFN-γ 48H / Geometric mean IFN-γ in arbitrary fluorescence units 48H: free peptide washed away; for % CD8+ T cells producing IFN-γ 48H / Geometric mean IFN-γ in arbitrary fluorescence units 48H: time point 48H

Substance: [PHG][NVA]YDFFVWL
- % inhibition at T=4H and T=24H FP 4h (HLA-A0201): 79%
- % inhibition at T=4H and T=24H FP 24h (HLA-A0201): 76%
- % CD8+ T cells producing IFN-γ peptide concentrations in picomolar 24H 0.5 [1]: 0%
- Geometric mean IFN-γ in arbitrary fluorescence units peptide concentrations in picomolar 24H 0.5 [1]: 76 arbitrary fluorescence units
- % CD8+ T cells producing IFN-γ peptide concentrations in picomolar 24H 50 ([1]; peptide 50 pM): 15%
- Geometric mean IFN-γ in arbitrary fluorescence units peptide concentrations in picomolar 24H 50 ([1]; peptide 50 pM): 94 arbitrary fluorescence units
- % CD8+ T cells producing IFN-γ peptide concentrations in picomolar 24H 5·10^3 [1]: 29%
- Geometric mean IFN-γ in arbitrary fluorescence units peptide concentrations in picomolar 24H 5·10^3 [1]: 263 arbitrary fluorescence units
- % CD8+ T cells producing IFN-γ peptide concentrations in picomolar 48H 0.5 ([1]; 48H): 0%
- Geometric mean IFN-γ in arbitrary fluorescence units peptide concentrations in picomolar 48H 0.5 ([1]; 48H): 85 arbitrary fluorescence units
- % CD8+ T cells producing IFN-γ peptide concentrations in picomolar 48H 50 ([1]; 48H, peptide 50 pM): 2%
- % CD8+ T cells producing IFN-γ peptide concentrations in picomolar 48H 5·10^3 ([1]; 48H): 30%
- Geometric mean IFN-γ in arbitrary fluorescence units peptide concentrations in picomolar 48H 5·10^3 ([1]; 48H): 188 arbitrary fluorescence units

Substance: [CSME][2-AOC]YDFFVWL
- % inhibition at T=4H and T=24H FP 4H (HLA-A0201): 88%
- % inhibition at T=4H and T=24H FP 24H (HLA-A0201): 76%
- % inhibition at T=4H and T=24H FP 4h (HLA-A0201): 88%
- % inhibition at T=4H and T=24H FP 24h (HLA-A0201): 76%
- % CD8+ T cells producing IFN-γ peptide concentrations in picomolar 24H 0.5 [1]: 1%
- Geometric mean IFN-γ in arbitrary fluorescence units peptide concentrations in picomolar 24H 0.5 [1]: 71 arbitrary fluorescence units
- % CD8+ T cells producing IFN-γ peptide concentrations in picomolar 24H 50 ([1]; peptide 50 pM): 20%
- % CD8+ T cells producing IFN-γ peptide concentrations in picomolar 24H 5·10^3 [1]: 30%
- Geometric mean IFN-γ in arbitrary fluorescence units peptide concentrations in picomolar 24H 5·10^3 [1]: 264 arbitrary fluorescence units
- % CD8+ T cells producing IFN-γ peptide concentrations in picomolar 48H 0.5 ([1]; 48H): 0%
- Geometric mean IFN-γ in arbitrary fluorescence units peptide concentrations in picomolar 48H 0.5 ([1]; 48H): 68 arbitrary fluorescence units
- % CD8+ T cells producing IFN-γ peptide concentrations in picomolar 48H 50 ([1]; 48H, peptide 50 pM): 5%
- % CD8+ T cells producing IFN-γ peptide concentrations in picomolar 48H 5·10^3 ([1]; 48H): 33%
- Geometric mean IFN-γ in arbitrary fluorescence units peptide concentrations in picomolar 48H 5·10^3 ([1]; 48H): 224 arbitrary fluorescence units

Substance: [CSME][NVA]AGIGILT[PRG]
- % inhibition at T=4H and T=24H FP 4h (HLA-A0201): 63%
- % inhibition at T=4H and T=24H FP 24h (HLA-A0201): 60%
- IC50 Ratio (HLA-A0201): 2.8

Substance: E[2-AOC]AGIGI[4FPHE]T[OM-HS]
- % inhibition at T=4H and T=24H FP 4h (HLA-A0201): 78%
- % inhibition at T=4H and T=24H FP 24h (HLA-A0201): 66%
- IC50 Ratio (HLA-A0201): 1.9

Substance: [PHG]AAGIGI[4-FPHE]T[NLE]
- % inhibition at T=4H and T=24H FP 4h (HLA-A0201): 63%
- % inhibition at T=4H and T=24H FP 24h (HLA-A0201): 66%
- IC50 Ratio (HLA-A0201): 6.8

Substance: [am-phg][2-AOC]YDFFVW[ALG]
- % inhibition at T=4H and T=24H FP 4h (HLA-A0201): 73%
- % inhibition at T=4H and T=24H FP 24h (HLA-A0201): 73%
- % CD8+ T cells producing IFN-γ peptide concentrations in picomolar 24H 0.5 [1]: 0%
- Geometric mean IFN-γ in arbitrary fluorescence units peptide concentrations in picomolar 24H 0.5 [1]: 98 arbitrary fluorescence units
- % CD8+ T cells producing IFN-γ peptide concentrations in picomolar 24H 50 ([1]; peptide 50 pM): 1%
- Geometric mean IFN-γ in arbitrary fluorescence units peptide concentrations in picomolar 24H 50 ([1]; peptide 50 pM): 69 arbitrary fluorescence units
- % CD8+ T cells producing IFN-γ peptide concentrations in picomolar 24H 5·10^3 [1]: 7%
- Geometric mean IFN-γ in arbitrary fluorescence units peptide concentrations in picomolar 24H 5·10^3 [1]: 79 arbitrary fluorescence units
- % CD8+ T cells producing IFN-γ peptide concentrations in picomolar 48H 0.5 ([1]; 48H): 0%
- Geometric mean IFN-γ in arbitrary fluorescence units peptide concentrations in picomolar 48H 0.5 ([1]; 48H): 76 arbitrary fluorescence units
- % CD8+ T cells producing IFN-γ peptide concentrations in picomolar 48H 50 ([1]; 48H, peptide 50 pM): 0%
- Geometric mean IFN-γ in arbitrary fluorescence units peptide concentrations in picomolar 48H 50 ([1]; 48H, peptide 50 pM): 80 arbitrary fluorescence units
- % CD8+ T cells producing IFN-γ peptide concentrations in picomolar 48H 5·10^3 ([1]; 48H): 4%
- Geometric mean IFN-γ in arbitrary fluorescence units peptide concentrations in picomolar 48H 5·10^3 ([1]; 48H): 71 arbitrary fluorescence units

Substance: [CSME][2-AOC]AGIGILT[PRG]
- % inhibition at T=4H and T=24H FP 4h (HLA-A0201): 72%
- % inhibition at T=4H and T=24H FP 24h (HLA-A0201): 70%
- IC50 Ratio (HLA-A0201): 14.8

Substance: [am-phg]AAGIGI[4-FPHE]TV
- % inhibition at T=4H and T=24H FP 4h (HLA-A0201): 62%
- % inhibition at T=4H and T=24H FP 24h (HLA-A0201): 59%
- IC50 Ratio (HLA-A0201): 2.1

Substance: [am-phg]LAGIGILT[PRG]
- % CD8+ T cells producing IFN-γ 0H ([2]; peptide 0.5 pM): 0%
- Geometric mean IFN-γ in arbitrary fluorescence units 0H ([2]; peptide 0.5 pM): 94 arbitrary fluorescence units
- % CD8+ T cells producing IFN-γ 2H ([2]; peptide 0.5 pM): 27%
- Geometric mean IFN-γ in arbitrary fluorescence units 2H ([2]; peptide 0.5 pM): 214 arbitrary fluorescence units
- % CD8+ T cells producing IFN-γ 4H ([2]; peptide 0.5 pM): 29%
- Geometric mean IFN-γ in arbitrary fluorescence units 4H ([2]; peptide 0.5 pM): 345 arbitrary fluorescence units
- % CD8+ T cells producing IFN-γ 24H ([2]; peptide 0.5 pM): 15%
- Geometric mean IFN-γ in arbitrary fluorescence units 24H ([2]; peptide 0.5 pM): 159 arbitrary fluorescence units
- % CD8+ T cells producing IFN-γ 48H ([2]; peptide 0.5 pM): 3%
- Geometric mean IFN-γ in arbitrary fluorescence units 48H ([2]; peptide 0.5 pM): 103 arbitrary fluorescence units
- % CD8+ T cells producing IFN-γ 0H ([2]; peptide 50 pM): 0%
- Geometric mean IFN-γ in arbitrary fluorescence units 0H ([2]; peptide 50 pM): 105 arbitrary fluorescence units
- % CD8+ T cells producing IFN-γ 2H ([2]; peptide 50 pM): 22%
- Geometric mean IFN-γ in arbitrary fluorescence units 2H ([2]; peptide 50 pM): 249 arbitrary fluorescence units
- % CD8+ T cells producing IFN-γ 4H ([2]; peptide 50 pM): 31%
- Geometric mean IFN-γ in arbitrary fluorescence units 4H ([2]; peptide 50 pM): 480 arbitrary fluorescence units
- % CD8+ T cells producing IFN-γ 24H ([2]; peptide 50 pM): 28%
- Geometric mean IFN-γ in arbitrary fluorescence units 24H ([2]; peptide 50 pM): 342 arbitrary fluorescence units
- % CD8+ T cells producing IFN-γ 48H ([2]; peptide 50 pM): 18%
- Geometric mean IFN-γ in arbitrary fluorescence units 48H ([2]; peptide 50 pM): 215 arbitrary fluorescence units

Substance: [CSME]AAGIGI[4-FPHE]TV
- % inhibition at T=4H and T=24H FP 4h (HLA-A0201): 63%
- % inhibition at T=4H and T=24H FP 24h (HLA-A0201): 58%

Substance: [CSME][2-AOC]KDVEERV
- % inhibition at T=4H and T=24H FP 4h (HLA-A0201): 60%
- % inhibition at T=4H and T=24H FP 24h (HLA-A0201): 56%

Substance: [PHG][NVA]AGIGILT[ALG] ({PHG-NVA}-AGIGILT-{ALG}; reading uncertain; also: printed as [PHG][NVA]AGIGILT[ALG])
- % inhibition at T=4H and T=24H FP 4h (HLA-A0201): 65%
- % inhibition at T=4H and T=24H FP 24h (HLA-A0201): 64%
- IC50 Ratio (HLA-A0201): 18.9

Substance: [3-PYRA]MYSDFHFI
- % inhibition at T=4H and T=24H FP 4H (HLA-A0201): 79%
- % inhibition at T=4H and T=24H FP 24H (HLA-A0201): 76%

Substance: [CSCF3][2-AOC]YDFFVWL
- % inhibition at T=4H and T=24H FP 4H (HLA-A0201): 91%
- % inhibition at T=4H and T=24H FP 24H (HLA-A0201): 79%

Substance: [CSME][2-AOC]AGIGILTV
- % CD8+ T cells producing IFN-γ 0H ([2]; peptide 0.5 pM): 0%
- Geometric mean IFN-γ in arbitrary fluorescence units 0H ([2]; peptide 0.5 pM): 101 arbitrary fluorescence units
- % CD8+ T cells producing IFN-γ 2H ([2]; peptide 0.5 pM): 27%
- Geometric mean IFN-γ in arbitrary fluorescence units 2H ([2]; peptide 0.5 pM): 219 arbitrary fluorescence units
- % CD8+ T cells producing IFN-γ 4H ([2]; peptide 0.5 pM): 29%
- Geometric mean IFN-γ in arbitrary fluorescence units 4H ([2]; peptide 0.5 pM): 368 arbitrary fluorescence units
- % CD8+ T cells producing IFN-γ 24H ([2]; peptide 0.5 pM): 18%
- Geometric mean IFN-γ in arbitrary fluorescence units 24H ([2]; peptide 0.5 pM): 167 arbitrary fluorescence units
- % CD8+ T cells producing IFN-γ 48H ([2]; peptide 0.5 pM): 7%
- Geometric mean IFN-γ in arbitrary fluorescence units 48H ([2]; peptide 0.5 pM): 119 arbitrary fluorescence units
- % CD8+ T cells producing IFN-γ 0H ([2]; peptide 50 pM): 0%
- Geometric mean IFN-γ in arbitrary fluorescence units 0H ([2]; peptide 50 pM): 111 arbitrary fluorescence units
- % CD8+ T cells producing IFN-γ 2H ([2]; peptide 50 pM): 28%
- Geometric mean IFN-γ in arbitrary fluorescence units 2H ([2]; peptide 50 pM): 249 arbitrary fluorescence units
- % CD8+ T cells producing IFN-γ 4H ([2]; peptide 50 pM): 31%
- Geometric mean IFN-γ in arbitrary fluorescence units 4H ([2]; peptide 50 pM): 563 arbitrary fluorescence units
- % CD8+ T cells producing IFN-γ 24H ([2]; peptide 50 pM): 27%
- Geometric mean IFN-γ in arbitrary fluorescence units 24H ([2]; peptide 50 pM): 397 arbitrary fluorescence units
- % CD8+ T cells producing IFN-γ 48H ([2]; peptide 50 pM): 20%
- Geometric mean IFN-γ in arbitrary fluorescence units 48H ([2]; peptide 50 pM): 288 arbitrary fluorescence units
